Test results published in PubChem BioAssay (NCI).
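Interpolation was linear, between the two tested concentrations surrounding the appropriate level; five concentrations were tested over 48 hours in 96-well plates. The concentration for 50% growth inhibition is given as GI50. Definition used: TGI = concentration required for complete inhibition of growth.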

How the values were obtained:
Test in all cases: DTP human tumour cell line panel, 48 h
786-0 renal = system: 786-0 renal
A498 renal = system: A498 renal
A549 NSCLC = system: A549 NSCLC
ACHN renal = system: ACHN renal
CCRF-CEM leukemia = system: CCRF-CEM leukemia
COLO 205 colon = system: COLO 205 colon
DLD-1 colon = system: DLD-1 colon
DMS 114 small cell lung = system: DMS 114 small cell lung
DMS 273 small cell lung = system: DMS 273 small cell lung
HCC-2998 colon = system: HCC-2998 colon
HCT-116 colon = system: HCT-116 colon
HCT-15 colon = system: HCT-15 colon
HL-60(TB) leukemia = system: HL-60(TB) leukemia
HOP-18 NSCLC = system: HOP-18 NSCLC
HOP-62 NSCLC = system: HOP-62 NSCLC
HOP-92 NSCLC = system: HOP-92 NSCLC
HT29 colon = system: HT29 colon
IGROV1 ovarian = system: IGROV1 ovarian
K-562 leukemia = system: K-562 leukemia
KM12 colon = system: KM12 colon
LXFL 529 NSCLC = system: LXFL 529 NSCLC
M14 melanoma = system: M14 melanoma
M19-MEL melanoma = system: M19-MEL melanoma
MALME-3M melanoma = system: MALME-3M melanoma
MOLT-4 leukemia = system: MOLT-4 leukemia
NCI-H226 lung = system: NCI-H226 lung
NCI-H23 lung = system: NCI-H23 lung
NCI-H460 lung = system: NCI-H460 lung
NCI-H522 lung = system: NCI-H522 lung
OVCAR-3 ovarian = system: OVCAR-3 ovarian
OVCAR-4 ovarian = system: OVCAR-4 ovarian
OVCAR-5 ovarian = system: OVCAR-5 ovarian
OVCAR-8 ovarian = system: OVCAR-8 ovarian
RPMI-8226 leukemia = system: RPMI-8226 leukemia
SF-268 CNS = system: SF-268 CNS
SF-295 CNS = system: SF-295 CNS
SF-539 CNS = system: SF-539 CNS
SK-MEL-2 melanoma = system: SK-MEL-2 melanoma
SK-MEL-28 melanoma = system: SK-MEL-28 melanoma
SK-MEL-5 melanoma = system: SK-MEL-5 melanoma
SK-OV-3 ovarian = system: SK-OV-3 ovarian
SN12C renal = system: SN12C renal
SNB-19 CNS = system: SNB-19 CNS
SNB-75 CNS = system: SNB-75 CNS
SNB-78 CNS = system: SNB-78 CNS
SR leukemia = system: SR leukemia
SW-620 colon = system: SW-620 colon
TK-10 renal = system: TK-10 renal
U251 CNS = system: U251 CNS
UACC-257 melanoma = system: UACC-257 melanoma
UACC-62 melanoma = system: UACC-62 melanoma
UO-31 renal = system: UO-31 renal
CAKI-1 renal = system: CAKI-1 renal
EKVX NSCLC = system: EKVX NSCLC
KM20L2 colon = system: KM20L2 colon
LOX IMVI melanoma = system: LOX IMVI melanoma
RXF 393 renal = system: RXF 393 renal

SMILES: O=C1CNN=C(Cn2nc(-c3ccccc3)c3ccccc3c2=O)N1
- TGI (786-0 renal): > 100 µM
- TGI (A498 renal): > 100 µM
- TGI (A549 NSCLC): > 100 µM
- TGI (ACHN renal): > 100 µM
- TGI (CCRF-CEM leukemia): > 100 µM
- TGI (COLO 205 colon): > 100 µM
- TGI (DLD-1 colon): > 100 µM
- TGI (DMS 114 small cell lung): > 100 µM
- TGI (DMS 273 small cell lung): > 100 µM
- TGI (HCC-2998 colon): > 100 µM
- TGI (HCT-116 colon): > 100 µM
- TGI (HCT-15 colon): > 100 µM
- TGI (HL-60(TB) leukemia): > 100 µM
- TGI (HOP-18 NSCLC): > 100 µM
- TGI (HOP-62 NSCLC): > 100 µM
- TGI (HOP-92 NSCLC): > 100 µM
- TGI (HT29 colon): > 100 µM
- TGI (IGROV1 ovarian): > 100 µM
- TGI (K-562 leukemia): > 100 µM
- TGI (KM12 colon): > 100 µM
- TGI (LXFL 529 NSCLC): > 100 µM
- TGI (M14 melanoma): > 100 µM
- TGI (M19-MEL melanoma): > 100 µM
- TGI (MALME-3M melanoma): > 100 µM
- TGI (MOLT-4 leukemia): > 100 µM
- TGI (NCI-H226 lung): > 100 µM
- TGI (NCI-H23 lung): > 100 µM
- TGI (NCI-H460 lung): > 100 µM
- TGI (NCI-H522 lung): > 100 µM
- TGI (OVCAR-3 ovarian): > 100 µM
- TGI (OVCAR-4 ovarian): > 100 µM
- TGI (OVCAR-5 ovarian): > 100 µM
- TGI (OVCAR-8 ovarian): > 100 µM
- TGI (RPMI-8226 leukemia): > 100 µM
- TGI (SF-268 CNS): > 100 µM
- TGI (SF-295 CNS): > 100 µM
- TGI (SF-539 CNS): > 100 µM
- TGI (SK-MEL-2 melanoma): > 100 µM
- TGI (SK-MEL-28 melanoma): > 100 µM
- TGI (SK-MEL-5 melanoma): > 100 µM
- TGI (SK-OV-3 ovarian): > 100 µM
- TGI (SN12C renal): > 100 µM
- TGI (SNB-19 CNS): > 100 µM
- TGI (SNB-75 CNS): > 100 µM
- TGI (SNB-78 CNS): > 100 µM
- TGI (SR leukemia): > 100 µM
- TGI (SW-620 colon): > 100 µM
- TGI (TK-10 renal): > 100 µM
- TGI (U251 CNS): > 100 µM
- TGI (UACC-257 melanoma): > 100 µM
- TGI (UACC-62 melanoma): > 100 µM
- TGI (UO-31 renal): > 100 µM

SMILES: O=c1cccccc1[O-].O=c1cccccc1[O-].O=c1cccccc1[O-].[Sm+3]
- TGI (786-0 renal): > 100 µM
- GI50 (A498 renal): 87.5 µM
- TGI (A498 renal): > 100 µM
- TGI (A549 NSCLC): > 100 µM
- TGI (ACHN renal): > 100 µM
- TGI (CAKI-1 renal): > 100 µM
- TGI (CCRF-CEM leukemia): > 100 µM
- GI50 (DLD-1 colon): 18 µM
- TGI (DLD-1 colon): > 100 µM
- GI50 (DMS 273 small cell lung): 11.3 µM
- TGI (DMS 273 small cell lung): > 100 µM
- TGI (EKVX NSCLC): > 100 µM
- TGI (HCC-2998 colon): > 100 µM
- TGI (HCT-116 colon): 94.5 µM
- TGI (HCT-15 colon): > 100 µM
- TGI (HL-60(TB) leukemia): > 100 µM
- GI50 (HOP-62 NSCLC): 37.1 µM
- TGI (HOP-62 NSCLC): > 100 µM
- TGI (HOP-92 NSCLC): > 100 µM
- TGI (HT29 colon): > 100 µM
- TGI (IGROV1 ovarian): > 100 µM
- TGI (K-562 leukemia): > 100 µM
- TGI (KM12 colon): > 100 µM
- GI50 (KM20L2 colon): 15.4 µM
- TGI (KM20L2 colon): > 100 µM
- TGI (LOX IMVI melanoma): > 100 µM
- TGI (M14 melanoma): > 100 µM
- TGI (MALME-3M melanoma): > 100 µM
- TGI (MOLT-4 leukemia): > 100 µM
- TGI (NCI-H226 lung): > 100 µM
- TGI (NCI-H23 lung): 71.5 µM
- TGI (NCI-H460 lung): > 100 µM
- TGI (NCI-H522 lung): > 100 µM
- TGI (OVCAR-3 ovarian): 47 µM
- TGI (OVCAR-4 ovarian): > 100 µM
- TGI (OVCAR-5 ovarian): > 100 µM
- TGI (OVCAR-8 ovarian): > 100 µM
- TGI (RPMI-8226 leukemia): > 100 µM
- TGI (RXF 393 renal): 53.6 µM
- TGI (SF-295 CNS): > 100 µM
- GI50 (SF-539 CNS): 29.1 µM
- TGI (SF-539 CNS): > 100 µM
- TGI (SK-MEL-2 melanoma): > 100 µM
- TGI (SK-MEL-5 melanoma): 89.9 µM
- TGI (SK-OV-3 ovarian): > 100 µM
- GI50 (SN12C renal): 26.8 µM
- TGI (SN12C renal): > 100 µM
- TGI (SNB-19 CNS): > 100 µM
- GI50 (SNB-78 CNS): 30.6 µM
- TGI (SNB-78 CNS): > 100 µM
- TGI (SW-620 colon): > 100 µM
- TGI (TK-10 renal): > 100 µM
- GI50 (U251 CNS): 13.8 µM
- TGI (U251 CNS): > 100 µM
- TGI (UACC-257 melanoma): > 100 µM
- TGI (UACC-62 melanoma): > 100 µM
- TGI (UO-31 renal): > 100 µM

SMILES: CC1CC(C)C(C(O)CC2CC(=O)N(c3ccccc3)C(=O)C2)C(O)C1 (stereo not drawn)
- TGI (786-0 renal): > 100 µM
- TGI (A498 renal): > 100 µM
- TGI (A549 NSCLC): > 100 µM
- TGI (ACHN renal): > 100 µM
- TGI (CAKI-1 renal): > 100 µM
- TGI (CCRF-CEM leukemia): > 100 µM
- TGI (COLO 205 colon): > 100 µM
- TGI (DLD-1 colon): > 100 µM
- TGI (DMS 114 small cell lung): > 100 µM
- TGI (DMS 273 small cell lung): > 100 µM
- TGI (EKVX NSCLC): > 100 µM
- TGI (HCC-2998 colon): > 100 µM
- TGI (HCT-116 colon): > 100 µM
- TGI (HL-60(TB) leukemia): > 100 µM
- TGI (HOP-18 NSCLC): > 100 µM
- TGI (HOP-62 NSCLC): > 100 µM
- TGI (HOP-92 NSCLC): > 100 µM
- TGI (HT29 colon): > 100 µM
- TGI (IGROV1 ovarian): > 100 µM
- TGI (K-562 leukemia): > 100 µM
- TGI (KM12 colon): > 100 µM
- TGI (KM20L2 colon): > 100 µM
- TGI (LOX IMVI melanoma): > 100 µM
- TGI (LXFL 529 NSCLC): > 100 µM
- TGI (M14 melanoma): > 100 µM
- TGI (M19-MEL melanoma): > 100 µM
- TGI (MALME-3M melanoma): > 100 µM
- TGI (MOLT-4 leukemia): > 100 µM
- TGI (NCI-H226 lung): > 100 µM
- TGI (NCI-H23 lung): > 100 µM
- TGI (NCI-H460 lung): > 100 µM
- TGI (NCI-H522 lung): > 100 µM
- TGI (OVCAR-3 ovarian): > 100 µM
- TGI (OVCAR-4 ovarian): > 100 µM
- TGI (OVCAR-5 ovarian): > 100 µM
- TGI (OVCAR-8 ovarian): > 100 µM
- TGI (RPMI-8226 leukemia): > 100 µM
- TGI (RXF 393 renal): > 100 µM
- TGI (SF-268 CNS): > 100 µM
- TGI (SF-295 CNS): > 100 µM
- TGI (SF-539 CNS): > 100 µM
- TGI (SK-MEL-28 melanoma): > 100 µM
- TGI (SK-OV-3 ovarian): > 100 µM
- TGI (SN12C renal): > 100 µM
- TGI (SNB-19 CNS): > 100 µM
- TGI (SNB-75 CNS): > 100 µM
- TGI (SNB-78 CNS): > 100 µM
- TGI (SR leukemia): > 100 µM
- TGI (SW-620 colon): > 100 µM
- TGI (TK-10 renal): > 100 µM
- TGI (U251 CNS): > 100 µM
- TGI (UACC-257 melanoma): > 100 µM
- TGI (UACC-62 melanoma): > 100 µM
- TGI (UO-31 renal): > 100 µM
